Test results published in publication PMC6334511, “Biochemical characterization of the minimal domains of an iterative eukaryotic polyketide synthase” (The Febs Journal, 2018).

Tested on: ApPKS KS-AT didomain
Experiment: alpha-ketoglutarate dehydrogenase coupled NADH fluorescence
Type: biochemical, Anas platyrhynchos
Conditions: transacylation to ACP1 (AT site), corrected for ACP1 self-acylation; 50 mM sodium phosphate pH 7.6, 10% glycerol, 1 mM TCEP, 1 mM EDTA; read-out: Km (apparent)

Row | Km | SMILES
1 | 7.4 ± 0.97 µM | CC(C)(COP(=O)(O)OP(=O)(O)OC[C@H]1O[C@@H](n2cnc3c(N)ncnc32)[C@H](O)[C@@H]1OP(=O)(O)O)[C@@H](O)C(=O)NCCC(=O)NCCSC(=O)CC(=O)O [malonyl-CoA]
2 | 12.2 ± 3.03 µM | CCC(=O)SCCNC(=O)CCNC(=O)[C@H](O)C(C)(C)COP(=O)(O)OP(=O)(O)OC[C@H]1O[C@@H](n2cnc3c(N)ncnc32)[C@H](O)[C@@H]1OP(=O)(O)O [propionyl-CoA]
3 | 8.97 ± 1.53 µM | CC(=O)SCCNC(=O)CCNC(=O)[C@H](O)C(C)(C)COP(=O)(O)OP(=O)(O)OC[C@H]1O[C@@H](n2cnc3c(N)ncnc32)[C@H](O)[C@@H]1OP(=O)(O)O [acetyl-CoA]
4 | 245 ± 37.7 µM | CC(C(=O)O)C(=O)SCCNC(=O)CCNC(=O)[C@H](O)C(C)(C)COP(=O)(O)OP(=O)(O)OC[C@H]1O[C@@H](n2cnc3c(N)ncnc32)[C@H](O)[C@@H]1OP(=O)(O)O (stereo partly shown) [methylmalonyl-CoA]
